Test results taken from patent US10183914B2 (BAYER CROPSCIENCE AKTIENGESELLSCHAFT, priority 2014, dated 2019).

Assays:
Ipomoea purpurea = experiment: Post-emergence herbicidal effect; assay type: in vivo; conditions: 320 g/ha (dose by row order of upper half), scoring after about 3 weeks
Method: (§1) Seeds of monocotyledonous and dicotyledonous weed and crop plants are laid out in sandy loam in wood-fiber pots, covered with soil and cultivated in a greenhouse under good growth conditions. 2 to 3 weeks after sowing, the test plants are treated at the one-leaf stage. The compounds of the invention, formulated in the form of wettable powders (WP) or as emulsion concentrates (EC), are then sprayed onto the green parts of the plants as aqueous suspension or emulsion at a water application rate equating to 600 to 800 L/ha with addition of 0.2% wetting agent. After the trial plants have been left to stand in a greenhouse under optimal growth conditions for about 3 weeks, the efficacy of the formulations is scored visually in comparison to untreated controls (herbicidal action in percent (%): 100% efficacy=the plants have died, 0% efficacy=like control plants).

[1] = test system: Triticum aestivum (spring); experiment: Post-emergence herbicidal effect and crop plant compatibility; assay type: in vivo; conditions: visual scoring after about 3 weeks
Method: as §1

Zea mays [2] = experiment: as above; assay type: in vivo; conditions: visual scoring after about 3 weeks
Method: as §1

Oryza sativa [3] = experiment: as above; assay type: in vivo; conditions: visual scoring after about 3 weeks
Method: as §1

Alopecurus myosuroides = experiment: Pre-emergence herbicidal effect; assay type: in vivo; conditions: 320 g/ha, 3 weeks
Description: (§2) Seeds of monocotyledonous and dicotyledonous weed plants and crop plants are laid out in wood-fiber pots in sandy loam and covered with soil. The compounds of the invention, formulated in the form of wettable powders (WP) or as emulsion concentrates (EC), are then applied to the surface of the covering soil as aqueous suspension or emulsion at a water application rate equating to 600 to 800 L/ha with addition of 0.2% wetting agent.
(§3) After the treatment, the pots are placed in a greenhouse and kept under good growth conditions for the trial plants. The damage to the trial plants is scored visually after a trial duration of 3 weeks by comparison with untreated controls (herbicidal activity in percent (%): 100% efficacy=the plants have died, 0% efficacy=like control plants).

Viola tricolor = experiment: Pre-emergence herbicidal effect; assay type: in vivo; conditions: 3 weeks
Description: as §2, §3

Matricaria inodora = experiment: Pre-emergence herbicidal effect; assay type: in vivo; conditions: 3 weeks
Description: as §2, §3

Stellaria media = experiment: Pre-emergence herbicidal effect; assay type: in vivo; conditions: 3 weeks
Description: as §2, §3

Amaranthus retroflexus = experiment: Pre-emergence herbicidal effect; assay type: in vivo; conditions: 3 weeks
Description: as §2, §3

Veronica persica = experiment: Pre-emergence herbicidal effect; assay type: in vivo; conditions: 3 weeks
Description: as §2, §3

Setaria viridis = experiment: Pre-emergence herbicidal effect; assay type: in vivo; conditions: 3 weeks
Description: as §2, §3

Polygonum convolvulus = experiment: Pre-emergence herbicidal effect; assay type: in vivo; conditions: 3 weeks
Description: as §2, §3

Lolium multiflorum [4] = experiment: Pre-emergence herbicidal effect; assay type: in vivo; conditions: 320 g/ha, 3 weeks
Description: as §2, §3

Echinochloa crus-galli [5] = experiment: Pre-emergence herbicidal effect; assay type: in vivo; conditions: 3 weeks
Description: as §2, §3

[6] = logp (HCOOH), physicochemical characterization
[7] = test system: Triticum aestivum (spring); experiment: Pre-emergence herbicidal effect and crop plant compatibility; assay type: in vivo; conditions: 3 weeks
Description: as §2, §3

Zea mays [8] = experiment: as above; assay type: in vivo; conditions: 3 weeks
Description: as §2, §3

Oryza sativa [9] = experiment: as above; assay type: in vivo; conditions: 3 weeks
Description: as §2, §3

Abutilon theophrasti = experiment: Pre-emergence herbicidal effect; assay type: in vivo; conditions: 320 g/ha, 3 weeks
Description: as §2, §3

Avena fatua = experiment: Pre-emergence herbicidal effect; assay type: in vivo; conditions: 3 weeks
Description: as §2, §3

Lolium multiflorum [10] = experiment: Post-emergence herbicidal effect; assay type: in vivo; conditions: 320 g/ha, visual scoring after about 3 weeks
Method: as §1

Echinochloa crus-galli [11] = experiment: Post-emergence herbicidal effect; assay type: in vivo; conditions: 320 g/ha, visual scoring after about 3 weeks
Method: as §1

| Compound | post-emergence efficacy TRZAS ([1]; 80 g/ha) | post-emergence efficacy TRZAS ([1]; 320 g/ha) | post-emergence efficacy ZEAMX (Zea mays [2]; 80 g/ha) | post-emergence efficacy ZEAMX (Zea mays [2]; 320 g/ha) | post-emergence efficacy ORYSA (Oryza sativa [3]; 80 g/ha) | post-emergence efficacy ORYSA (Oryza sativa [3]; 320 g/ha) | ALOMY herbicidal activity in percent (Alopecurus myosuroides) | VIOTR herbicidal activity in percent (Viola tricolor; 320 g/ha) | MATIN herbicidal activity in percent (Matricaria inodora; 320 g/ha) | STEME herbicidal activity in percent (Stellaria media; 320 g/ha) | AMARE herbicidal activity in percent (Amaranthus retroflexus; 320 g/ha) | VERPE herbicidal activity in percent (Veronica persica; 320 g/ha) | SETVI herbicidal activity in percent (Setaria viridis; 320 g/ha) | POLCO herbicidal activity in percent (Polygonum convolvulus; 320 g/ha) | LOLMU herbicidal activity in percent (Lolium multiflorum [4]) | ECHCG herbicidal activity in percent (Echinochloa crus-galli [5]; 320 g/ha) | logp (HCOOH) [6] | TRZAS herbicidal activity in percent ([7]; 320 g/ha) | ZEAMX herbicidal activity in percent (Zea mays [8]; 320 g/ha) | ORYSA herbicidal activity in percent (Oryza sativa [9]; 320 g/ha) | other results |
| --- | --- | --- | --- | --- | --- | --- | --- | --- | --- | --- | --- | --- | --- | --- | --- | --- | --- | --- | --- | --- | --- |
| CC1(C)CC(=O)c2cnc(NC3CCOc4ccccc43)nc2C1 (racemic) [2.94] | 10% | 20% | 0% | 0% | 0% | 0% | 80% | 100% | 100% | 100% | 100% | 100% | 90% | 100% | 90% | 100% | oily; logp (HCOOH): 2.97; 1H-NMR (CDCl3, 400 MHZ, δ in ppm): 1.10 (s, 6H, | 0% | 0% | 0% | post-emergence efficacy PHBPU (Ipomoea purpurea): 80% |
| Cc1ccc2c(c1)C(Nc1ncc3c(n1)CCCC3=O)CO2 (racemic) [2.117] | – | – | – | – | – | – | – | – | 100% | – | – | – | – | – | – | – | oily; logp (HCOOH): 2.52; 1H-NMR (CDCl3, 400 MHZ, δ in ppm): 2.10 (m, 2H, 2H | 0% | 20% | 0% | ABUTH herbicidal activity in percent (Abutilon theophrasti): 80% |
| CC(=O)c1cnc(N[C@@H]2CCc3c(F)cccc32)nc1 [1.90] | – | – | – | – | – | – | – | – | 100% | 80% | 90% | 100% | – | – | – | – | solid; m.p.: 111.5° C.; logp (HCOOH): 2.43; 1H-NMR (CDCl3, 400 MHZ, δ in ppm: | 0% | 20% | 20% | VIOTR herbicidal activity in percent (Viola tricolor; 1280 g/ha): 100%; MATIN herbicidal activity in percent (Matricaria inodora; 1280 g/ha): 100%; STEME herbicidal activity in percent (Stellaria media; 1280 g/ha): 100%; AMARE herbicidal activity in percent (Amaranthus retroflexus; 1280 g/ha): 100%; AVEFA herbicidal activity in percent (Avena fatua; 1280 g/ha): 100%; VERPE herbicidal activity in percent (Veronica persica; 1280 g/ha): 100%; POLCO herbicidal activity in percent (Polygonum convolvulus; 1280 g/ha): 90%; ECHCG herbicidal activity in percent (Echinochloa crus-galli [5]; 1280 g/ha): 80%; TRZAS herbicidal activity in percent ([7]; 1280 g/ha): 0%; ZEAMX herbicidal activity in percent (Zea mays [8]; 1280 g/ha): 20%; ORYSA herbicidal activity in percent (Oryza sativa [9]; 1280 g/ha): 20% |
| O=C1CCCc2nc(N[C@@H]3CCOc4c(F)cccc43)ncc21 [2.19] | – | 20% | – | – | – | 20% | 100% | 100% | 100% | 100% | 100% | 100% | 100% | 100% | 100% | 100% | oily; logp (HCOOH): 2.29; 1H-NMR (CDCl3, 400 MHZ, δ in ppm): 2.15 (m, 3H, 2H | 0% | 10% | – | post-emergence efficacy LOLMU (Lolium multiflorum [10]): 100%; post-emergence efficacy PHBPU (Ipomoea purpurea): 80%; post-emergence efficacy ECHCG (Echinochloa crus-galli [11]): 100%; AVEFA herbicidal activity in percent (Avena fatua; 320 g/ha): 90% |
| CC1(C)CC(=O)c2cnc(N[C@@H]3CCCc4ccccc43)nc2C1 [2.25, 7,7-dimethyl-2-[(1R)-1,2,3,4-tetrahydronaphthalen-1-ylamino]-7,8-dihydroquinazolin-5(6H)-one] | 10% | 20% | 0% | 0% | 0% | 0% | – | 100% | 100% | 100% | 100% | 100% | 100% | 100% | – | 100% | – | – | 0% | 0% | post-emergence efficacy PHBPU (Ipomoea purpurea): 90%; VIOTR herbicidal activity in percent (Viola tricolor; 80 g/ha): 100%; MATIN herbicidal activity in percent (Matricaria inodora; 80 g/ha): 90%; STEME herbicidal activity in percent (Stellaria media; 80 g/ha): 100%; AMARE herbicidal activity in percent (Amaranthus retroflexus; 80 g/ha): 90%; VERPE herbicidal activity in percent (Veronica persica; 80 g/ha): 100%; chromatographic logP ([6]; HCOOH (formic acid)): 3.71; TRZAS herbicidal activity in percent ([7]; 80 g/ha): 0%; ZEAMX herbicidal activity in percent (Zea mays [8]; 80 g/ha): 0%; ORYSA herbicidal activity in percent (Oryza sativa [9]; 80 g/ha): 0% |
| O=C1CC(C(F)(F)F)Cc2nc(N[C@@H]3CCCc4ccccc43)ncc21 (stereo partly shown) [2.96] | 10% | 20% | 0% | 10% | 0% | 0% | 80% | 100% | 90% | 100% | 100% | 100% | 90% | 80% | 90% | 100% | oily; logp (HCOOH): 3.71; 1H-NMR (CDCl3, 400 MHZ, δ in ppm): ): 1.95 (m, 3H, 2H | 0% | 10% | 0% | post-emergence efficacy PHBPU (Ipomoea purpurea): 80%; VIOTR herbicidal activity in percent (Viola tricolor; 80 g/ha): 100%; STEME herbicidal activity in percent (Stellaria media; 80 g/ha): 100%; AMARE herbicidal activity in percent (Amaranthus retroflexus; 80 g/ha): 100%; VERPE herbicidal activity in percent (Veronica persica; 80 g/ha): 100%; TRZAS herbicidal activity in percent ([7]; 80 g/ha): 0%; ZEAMX herbicidal activity in percent (Zea mays [8]; 80 g/ha): 0% |
| CC(C)C1CC(=O)c2cnc(N[C@@H]3CCCc4ccccc43)nc2C1 (stereo partly shown) [2.102] | 20% | – | 0% | 0% | 0% | 0% | 100% | 100% | 100% | 100% | 100% | 100% | 100% | 90% | 100% | 100% | – | 0% | 0% | 0% | post-emergence efficacy ECHCG (Echinochloa crus-galli [11]): 100%; VIOTR herbicidal activity in percent (Viola tricolor; 80 g/ha): 100%; MATIN herbicidal activity in percent (Matricaria inodora; 80 g/ha): 90%; STEME herbicidal activity in percent (Stellaria media; 80 g/ha): 100%; AMARE herbicidal activity in percent (Amaranthus retroflexus; 80 g/ha): 80%; VERPE herbicidal activity in percent (Veronica persica; 80 g/ha): 100%; SETVI herbicidal activity in percent (Setaria viridis; 80 g/ha): 100%; TRZAS herbicidal activity in percent ([7]; 80 g/ha): 0%; ZEAMX herbicidal activity in percent (Zea mays [8]; 80 g/ha): 0%; ORYSA herbicidal activity in percent (Oryza sativa [9]; 80 g/ha): 0% |
| CC(C)C1CC(=O)c2cnc(N[C@@H]3CCc4ccccc43)nc2C1 (stereo partly shown) [2.103] | 10% | 20% | 0% | 0% | 0% | 0% | 80% | 100% | 100% | 100% | 100% | 100% | – | – | 90% | 100% | – | 0% | 0% | 0% | post-emergence efficacy LOLMU (Lolium multiflorum [10]): 80%; MATIN herbicidal activity in percent (Matricaria inodora; 80 g/ha): 100%; STEME herbicidal activity in percent (Stellaria media; 80 g/ha): 100%; AMARE herbicidal activity in percent (Amaranthus retroflexus; 80 g/ha): 100%; VERPE herbicidal activity in percent (Veronica persica; 80 g/ha): 100%; ECHCG herbicidal activity in percent (Echinochloa crus-galli [5]; 80 g/ha): 90%; TRZAS herbicidal activity in percent ([7]; 80 g/ha): 0%; ZEAMX herbicidal activity in percent (Zea mays [8]; 80 g/ha): 0%; ORYSA herbicidal activity in percent (Oryza sativa [9]; 80 g/ha): 0% |
